DBAASP
In brackets after ≈: the same amount, converted by molar mass.

What was measured:
Assay in all cases: ≥ marks a high value that may be exact or a test limit, other limits are often not marked, values filed in µg/mL are converted to µM
[1] = system: Staphylococcus epidermidis
Candida albicans = system: Candida albicans
Escherichia coli = system: Escherichia coli
Staphylococcus aureus = system: Staphylococcus aureus
Bacillus subtilis = system: Bacillus subtilis
[2] = system: Escherichia coli ATCC 25922
[3] = system: Pseudomonas aeruginosa ATCC 27853
Pseudomonas aeruginosa = system: Pseudomonas aeruginosa
[4] = system: Staphylococcus aureus ATCC 25923
[5] = system: Candida albicans ATCC 2002
Escherichia coli UB1005 = system: Escherichia coli UB1005
[6] = system: Pseudomonas aeruginosa PAO1

| Structure (SMILES) | MIC (Candida albicans) [µM] | MIC (Escherichia coli) [µM] | MIC (Staphylococcus aureus) [µM] | MIC (Bacillus subtilis) [µM] | other results |
| --- | --- | --- | --- | --- | --- |
| CC[C@H](C)[C@H](NC(=O)[C@H](CO)NC(=O)[C@@H](NC(=O)[C@H](CCCCN)NC(=O)[C@H](Cc1ccccc1)NC(=O)[C@@H]1CCCN1C(=O)[C@@H](N)CCC(=O)O)[C@@H](C)CC)C(=O)N[C@@H](Cc1cnc[nH]1)C(=O)N[C@@H](CC(C)C)C(=O)NCC(=O)NCC(=O)N[C@@H](Cc1ccc(O)cc1)C(N)=O [EPFKISIHLGGY] | – | – | – | – | MIC [1]: ≥ 220 µM |
| CC[C@H](C)[C@H](NC(=O)[C@H](CC(=O)O)NC(=O)[C@H](CC(C)C)NC(=O)[C@H](Cc1ccccc1)NC(=O)CN)C(=O)N[C@H](C(=O)N[C@@H](CCCCN)C(=O)NCC(=O)N[C@H](C(=O)NCC(=O)N[C@@H](CCCCN)C(=O)N[C@H](C(=O)N[C@@H](C)C(=O)N[C@@H](CC(C)C)C(=O)NCC(=O)N[C@@H](C)C(=O)N[C@H](C(=O)N[C@@H](CO)C(=O)N[C@@H](CCCCN)C(=O)N[C@@H](CC(C)C)C(=O)N[C@@H](Cc1ccccc1)C(N)=O)C(C)C)C(C)C)C(C)C)C(C)C [GFLDIVKGVGKVALGAVSKLF] | 3.78 (≈ 8 µg/mL) | 15.1 (≈ 32 µg/mL) | 3.78 (≈ 8 µg/mL) | – | – |
| CC[C@H](C)[C@@H]1NC(=O)[C@H](CCCCN)NC(=O)[C@@H](NC(=O)[C@H](CCCCN)NC(=O)[C@H](CC(C)C)NC(=O)[C@H](CC(N)=O)NC(=O)[C@H](CC(=O)O)NC(=O)[C@H](CC(C)C)NC(=O)[C@H](CC(C)C)NC(=O)[C@@H](NC(=O)[C@@H](NC(=O)[C@H](C)NC(=O)[C@@H](NC(=O)[C@H](CC(N)=O)NC(=O)[C@H](CCCCN)NC(=O)[C@H](C)NC(=O)[C@H](C)NC(=O)[C@H](CC(N)=O)NC(=O)[C@H](CCCCN)NC(=O)[C@H](C)NC(=O)[C@@H](NC(=O)[C@H](CC(=O)O)NC(=O)[C@H](CCSC)NC(=O)[C@H](Cc2ccccc2)NC(=O)CN)[C@@H](C)O)C(C)C)C(C)C)[C@@H](C)O)CSSC[C@@H](C(=O)O)NC(=O)[C@H](C)NC(=O)[C@H](CCCCN)NC(=O)[C@H]([C@@H](C)O)NC1=O [GFMDTAKNAAKNVAVTLLDNLKCKITKAC] | 0.341 (≈ 1.05 µg/mL) | 1.36 (≈ 4.2 µg/mL) | 0.681 (≈ 2.1 µg/mL) | 2.72 (≈ 8.39 µg/mL) | – |
| CC[C@H](C)[C@H](NC(=O)[C@H](CO)NC(=O)CNC(=O)[C@H](CCCN=C(N)N)NC(=O)[C@@H](NC(=O)[C@H](CO)NC(=O)[C@@H](NC(=O)CNC(=O)[C@H](CO)NC(=O)[C@H](CC(C)C)NC(=O)[C@H](CC(C)C)NC(=O)CN)[C@@H](C)O)C(C)C)C(=O)O [GLLSGTSVRGSI] | 7.85 (≈ 9 µg/mL) | 31.4 (≈ 36 µg/mL) | 15.7 (≈ 18 µg/mL) | 15.7 (≈ 18 µg/mL) | – |
| CC[C@H](C)[C@H](N)C(=O)N[C@@H](CC(=O)O)C(=O)N[C@@H](Cc1c[nH]c2ccccc12)C(=O)N[C@@H](CCCCN)C(=O)N[C@@H](CCCCN)C(=O)N[C@H](C(=O)N[C@@H](Cc1ccccc1)C(=O)N[C@@H](CCC(=O)O)C(=O)N[C@@H](CCCCN)C(=O)N[C@H](C(=O)N[C@@H](CCCCN)C(=O)N[C@@H](CC(N)=O)C(=O)N[C@@H](CC(C)C)C(=O)N[C@H](C(N)=O)C(C)C)C(C)C)[C@@H](C)CC [IDWKKIFEKVKNLV] | – | 13 (≈ 22.9 µg/mL) | – | 8.5 (≈ 15 µg/mL) | – |
| CC[C@H](C)[C@H](N)C(=O)N[C@@H](CC(N)=O)C(=O)N[C@@H](Cc1c[nH]c2ccccc12)C(=O)N[C@@H](CCCCN)C(=O)N[C@@H](CCCCN)C(=O)N[C@H](C(=O)N[C@@H](C)C(=O)N[C@@H](CO)C(=O)N[C@H](C(=O)NCC(=O)N[C@@H](CCCCN)C(=O)N[C@@H](CCC(=O)O)C(=O)N[C@H](C(=O)N[C@@H](CC(C)C)C(=O)N[C@@H](CCCCN)C(=O)N[C@@H](C)C(=O)N[C@H](C(N)=O)[C@@H](C)CC)C(C)C)[C@@H](C)CC)[C@@H](C)CC [INWKKIASIGKEVLKAI] | – | 5.5 (≈ 10.5 µg/mL) | – | 27.2 (≈ 52 µg/mL) | – |
| CC[C@H](C)[C@H](N)C(=O)N[C@@H](CC(N)=O)C(=O)N[C@@H](Cc1c[nH]c2ccccc12)C(=O)N[C@@H](CCCCN)C(=O)N[C@@H](CCCCN)C(=O)N[C@H](C(=O)N[C@@H](C)C(=O)N[C@@H](CO)C(=O)N[C@H](C(=O)NCC(=O)N[C@@H](CCCCN)C(=O)N[C@@H](CCC(=O)O)C(=O)N[C@H](C(=O)N[C@@H](CC(C)C)C(N)=O)C(C)C)[C@@H](C)CC)[C@@H](C)CC [INWKKIASIGKEVL] | – | 100 (≈ 160 µg/mL) | – | ≥ 100 | – |
| CC[C@H](C)[C@H](NC(=O)[C@H](CC(C)C)NC(=O)[C@@H]1CCCN1C(=O)[C@H](CS)NC(=O)[C@H](CC(C)C)NC(=O)CNC(=O)[C@@H]1CCCN1C(=O)[C@H](CCCCN)NC(=O)[C@H](CCCCN)NC(=O)[C@@H]1CCCN1C(=O)[C@H](CCCN=C(N)N)NC(=O)[C@H](CC(=O)O)NC(=O)[C@@H](N)CCCCN)C(=O)N[C@@H](Cc1c[nH]c2ccccc12)C(=O)N[C@@H](Cc1c[nH]c2ccccc12)C(=O)N[C@@H](CC(C)C)C(=O)N[C@H](C(=O)N[C@H](C(=O)N[C@@H](CCCCN)C(=O)N[C@H](C(=O)NCC(N)=O)C(C)C)[C@@H](C)CC)[C@@H](C)CC [KDRPKKPGLCPLIWWLIIKVG] | 102 (≈ 250 µg/mL) | 12.7 (≈ 31.2 µg/mL) | 50.8 (≈ 125 µg/mL) | – | MIC [2]: 6.35 µM (≈ 15.6 µg/mL); MIC [3]: 25.4 µM (≈ 62.5 µg/mL); MIC (Pseudomonas aeruginosa): 25.4 µM (≈ 62.5 µg/mL); MIC [4]: 50.8 µM (≈ 125 µg/mL) |
| CC[C@H](C)[C@H](NC(=O)[C@@H](NC(=O)[C@@H](NC(=O)[C@@H]1CCCN1C(=O)[C@H](Cc1c[nH]c2ccccc12)NC(=O)[C@H](Cc1ccccc1)NC(=O)[C@H](CCCN=C(N)N)NC(=O)[C@H](CCCCN)NC(=O)[C@@H](NC(=O)[C@@H](N)CCCN=C(N)N)[C@@H](C)CC)C(C)C)C(C)C)C(=O)N[C@@H](CCCN=C(N)N)C(=O)N[C@H](C(=O)N[C@H](C(=O)N[C@H](C(=O)N[C@@H](C)C(=O)NCC(=O)N[C@@H](Cc1ccc(O)cc1)C(=O)O)C(C)C)C(C)C)[C@@H](C)O [RIKRFWPVVIRTVVAGY] | – | – | – | – | MIC [5]: ≥ 36.4 µM |
| CC[C@H](C)[C@H](NC(=O)[C@@H](NC(=O)[C@@H](NC(=O)[C@@H]1CCCN1C(=O)[C@H](Cc1c[nH]c2ccccc12)NC(=O)[C@H](Cc1ccccc1)NC(=O)[C@H](CCCN=C(N)N)NC(=O)[C@H](CCCCN)NC(=O)[C@@H](NC(=O)[C@@H](N)CCCN=C(N)N)[C@@H](C)CC)C(C)C)C(C)C)C(=O)N[C@@H](CCCN=C(N)N)C(=O)N[C@H](C(=O)N[C@H](C(=O)N[C@H](C(=O)N[C@@H](C)C(=O)NCC(=O)O)C(C)C)C(C)C)[C@@H](C)O [RIKRFWPVVIRTVVAG] | – | – | – | – | MIC [5]: ≥ 79.1 µM |
| CC[C@H](C)[C@H](NC(=O)[C@H](CCCCN)NC(=O)[C@H](CS)NC(=O)[C@H](C)NC(=O)[C@@H](NC(=O)[C@H](Cc1ccccc1)NC(=O)CNC(=O)[C@H](CC(C)C)NC(=O)CNC(=O)[C@@H](NC(=O)[C@H](CCCCN)NC(=O)CNC(=O)[C@H](CC(C)C)NC(=O)[C@H](CC(N)=O)NC(=O)[C@H](CCCCN)NC(=O)[C@H](CC(C)C)NC(=O)[C@@H](NC(=O)[C@H](CCCCN)NC(=O)[C@H](CC(C)C)NC(=O)[C@H](CCSC)NC(=O)[C@@H](N)CO)C(C)C)C(C)C)C(C)C)C(=O)N[C@@H](CC(N)=O)C(=O)N[C@@H](CCCCN)C(=O)N[C@@H](CCC(N)=O)C(=O)N[C@@H](CS)C(=O)O [SMLKVLKNLGKVGLGFVACKINKQC] | 40 (≈ 108 µg/mL) | 10 (≈ 26.9 µg/mL) | 20 (≈ 53.8 µg/mL) | – | – |
| CC[C@H](C)[C@H](NC(=O)[C@H](CCCCN)NC(=O)[C@H](C)NC(=O)[C@H](C)NC(=O)[C@@H](NC(=O)[C@H](Cc1ccccc1)NC(=O)CNC(=O)[C@H](CC(C)C)NC(=O)CNC(=O)[C@@H](NC(=O)[C@H](CCCCN)NC(=O)CNC(=O)[C@H](CC(C)C)NC(=O)[C@H](CC(N)=O)NC(=O)[C@H](CCCCN)NC(=O)[C@H](CC(C)C)NC(=O)[C@@H](NC(=O)[C@H](CO)NC(=O)[C@H](CC(C)C)NC(=O)[C@H](CCSC)NC(=O)[C@@H](N)CO)C(C)C)C(C)C)C(C)C)C(=O)N[C@@H](C)C(=O)N[C@@H](CCCCN)C(=O)N[C@@H](CCC(N)=O)C(=O)N[C@@H](C)C(=O)O [SMLSVLKNLGKVGLGFVAAKIAKQA] | 100 (≈ 254 µg/mL) | 20 (≈ 50.9 µg/mL) | 100 (≈ 254 µg/mL) | – | – |
| CSCC[C@H](NC(=O)[C@H](CCSC)NC(=O)[C@H](CCCCN)NC(=O)[C@H](CCCCN)NC(=O)CNC(=O)[C@H](CC(C)C)NC(=O)[C@H](CCCCN)NC(=O)[C@H](CC(C)C)NC(=O)[C@H](Cc1c[nH]c2ccccc12)NC(=O)[C@H](CC(N)=O)NC(=O)[C@@H](N)CO)C(=O)N[C@@H](CO)C(=O)N[C@@H](C)C(=O)N[C@@H](CC(C)C)C(N)=O [SNWLKLGKKMMSAL] | – | 100 (≈ 161 µg/mL) | – | ≥ 40 | – |
| CC[C@H](C)[C@H](NC(=O)[C@H](CCCN=C(N)N)NC(=O)[C@H](CCCCN)NC(=O)[C@@H]1CCCN1C(=O)[C@@H]1CCCN1C(=O)[C@H](CCCN=C(N)N)NC(=O)[C@@H]1CCCN1C(=O)[C@H](CCCN=C(N)N)NC(=O)[C@@H]1CCCN1C(=O)[C@H](CC(C)C)NC(=O)[C@H](Cc1ccc(O)cc1)NC(=O)[C@@H]1CCCN1C(=O)[C@@H]1CCCN1C(=O)[C@H](CCCCN)NC(=O)[C@H](CC(=O)O)NC(=O)[C@@H](N)C(C)C)C(=O)N[C@@H](Cc1ccc(O)cc1)C(=O)N[C@@H](CC(N)=O)C(=O)N[C@@H](CCCN=C(N)N)C(N)=O [VDKPPYLPRPRPPKRIYNR] | – | – | – | – | MIC (Escherichia coli UB1005): 0.254 µM (≈ 0.6 µg/mL); MIC [6]: 27.1 µM (≈ 64 µg/mL); MIC [4]: 27.1 µM (≈ 64 µg/mL) |
